Here are results for 7 molecules from ChEMBL document CHEMBL1159294, “Bioactive Prenylhydroquinone Sulfates and a Novel C 31 Furanoterpene Alcohol Sulfate from the Marine Sponge, Ircinia Sp” (J Nat Prod, 1995).

The target in experiment [1] is Human immunodeficiency virus type 1 integrase (Human immunodeficiency virus 1) (UniProt Q7ZJM1). Description: Inhibition of HIV1 integrase at 5 ug/ml by scintillation proximity assay. A general note: In a scintillation proximity assay essentially only radioactivity close to the scintillant gives light.
The target is the same in experiment [2]. Put plainly: Inhibition of HIV1 integrase at 1 ug/ml by scintillation proximity assay.
The target in experiment [3] is Receptor tyrosine-protein kinase erbB-2 (Homo sapiens, UniProt P04626). Description: Inhibition of HER2 overexpressed in mouse 3T3 cells by ELISA. It is filed as cell-based. As to conditions: for Activity: NIH3T3. A general note: In an ELISA, binding on a coated surface is turned into a signal by an enzyme label.
In experiment [4] the target is T1, Neuropeptide Y receptor type 1 (Rattus norvegicus) (UniProt P21555).
T1 sequence (whole entry): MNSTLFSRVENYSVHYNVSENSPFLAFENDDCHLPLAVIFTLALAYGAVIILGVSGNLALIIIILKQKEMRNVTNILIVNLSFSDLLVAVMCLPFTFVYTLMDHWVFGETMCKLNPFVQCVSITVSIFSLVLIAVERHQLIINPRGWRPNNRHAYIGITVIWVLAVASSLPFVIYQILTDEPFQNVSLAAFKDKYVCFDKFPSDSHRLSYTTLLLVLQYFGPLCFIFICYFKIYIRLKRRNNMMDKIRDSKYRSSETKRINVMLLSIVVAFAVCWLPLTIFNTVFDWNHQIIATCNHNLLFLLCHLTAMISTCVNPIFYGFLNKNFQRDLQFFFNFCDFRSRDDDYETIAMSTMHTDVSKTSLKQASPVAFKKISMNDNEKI
Description: (§1) Displacement of [3H]NPY from neuropeptide Y receptor in rat cerebral cortices.

For experiment [5], the target named is T2, VIP peptides (Homo sapiens) (UniProt P01282).
T2 sequence (whole entry): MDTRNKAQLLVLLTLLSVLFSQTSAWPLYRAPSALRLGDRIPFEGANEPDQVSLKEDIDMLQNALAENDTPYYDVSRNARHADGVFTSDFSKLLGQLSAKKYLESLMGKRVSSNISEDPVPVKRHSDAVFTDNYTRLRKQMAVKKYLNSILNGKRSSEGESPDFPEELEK
Description: Binding affinity to vasoactive intestinal peptide.

In experiment [6] the target is T3, Neuromedin-K receptor (Homo sapiens) (UniProt P29371).
T3 sequence (whole entry): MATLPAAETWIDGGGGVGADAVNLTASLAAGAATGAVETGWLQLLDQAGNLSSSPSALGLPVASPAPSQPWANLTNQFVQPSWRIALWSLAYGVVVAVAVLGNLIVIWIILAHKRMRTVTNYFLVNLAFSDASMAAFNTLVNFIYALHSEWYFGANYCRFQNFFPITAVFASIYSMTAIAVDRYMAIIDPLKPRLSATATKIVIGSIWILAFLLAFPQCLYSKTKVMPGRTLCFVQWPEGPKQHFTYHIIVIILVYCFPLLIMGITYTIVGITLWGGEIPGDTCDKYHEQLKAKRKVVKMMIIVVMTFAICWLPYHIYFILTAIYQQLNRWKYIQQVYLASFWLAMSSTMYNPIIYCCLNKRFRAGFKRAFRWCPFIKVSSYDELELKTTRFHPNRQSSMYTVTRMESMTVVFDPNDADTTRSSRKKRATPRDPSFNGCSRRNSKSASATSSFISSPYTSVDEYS
Description: Binding affinity to NK3 receptor.

Another experiment is filed under the species Rattus norvegicus. Put plainly: Displacement of radioiodinated somatostatins from rat somatostatin receptor.
Experiment [7] addresses T4, B2 bradykinin receptor (Homo sapiens) (UniProt P30411).
T4 sequence (whole entry): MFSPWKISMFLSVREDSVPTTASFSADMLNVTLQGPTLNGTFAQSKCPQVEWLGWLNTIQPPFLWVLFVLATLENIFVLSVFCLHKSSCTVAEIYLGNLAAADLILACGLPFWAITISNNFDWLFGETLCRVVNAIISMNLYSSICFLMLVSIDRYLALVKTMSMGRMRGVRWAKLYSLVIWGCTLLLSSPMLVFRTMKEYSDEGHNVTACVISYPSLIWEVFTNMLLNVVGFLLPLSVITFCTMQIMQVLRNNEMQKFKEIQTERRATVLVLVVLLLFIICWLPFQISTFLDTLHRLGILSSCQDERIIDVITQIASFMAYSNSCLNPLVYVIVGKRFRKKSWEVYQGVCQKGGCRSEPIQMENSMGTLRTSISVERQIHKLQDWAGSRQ
Description: Displacement of [3H]bradykinin from human bradykinin B2 receptor expressed in baculovirus-infected SF21 cells.

A short description of experiment [8]: Binding affinity to neurotensin receptor.
Experiment [9] is described as follows: Binding affinity to galanin receptor.
The target in experiment [10] is T5, Neuropeptide Y receptor type 1 (Rattus norvegicus, UniProt P21555).
T5 sequence (P21555 whole entry): T1 sequence (whole entry)
The experiment is described as §1.

Active and inactive are the calls of the source. The calls are words filed in the database; no cut-off is given here.

Human immunodeficiency virus type 1 integrase (Human immunodeficiency virus 1), sequence (Q7ZJM1 as listed by the source): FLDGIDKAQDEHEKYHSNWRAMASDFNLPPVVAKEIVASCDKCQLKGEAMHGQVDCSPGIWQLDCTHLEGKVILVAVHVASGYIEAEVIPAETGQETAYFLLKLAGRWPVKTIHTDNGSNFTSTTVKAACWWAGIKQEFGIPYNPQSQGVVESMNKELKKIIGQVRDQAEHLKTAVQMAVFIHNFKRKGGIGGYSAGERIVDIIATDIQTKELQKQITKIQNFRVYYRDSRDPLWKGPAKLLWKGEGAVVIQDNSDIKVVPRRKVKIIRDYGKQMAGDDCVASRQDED
Receptor tyrosine-protein kinase erbB-2, sequence (P04626 whole entry): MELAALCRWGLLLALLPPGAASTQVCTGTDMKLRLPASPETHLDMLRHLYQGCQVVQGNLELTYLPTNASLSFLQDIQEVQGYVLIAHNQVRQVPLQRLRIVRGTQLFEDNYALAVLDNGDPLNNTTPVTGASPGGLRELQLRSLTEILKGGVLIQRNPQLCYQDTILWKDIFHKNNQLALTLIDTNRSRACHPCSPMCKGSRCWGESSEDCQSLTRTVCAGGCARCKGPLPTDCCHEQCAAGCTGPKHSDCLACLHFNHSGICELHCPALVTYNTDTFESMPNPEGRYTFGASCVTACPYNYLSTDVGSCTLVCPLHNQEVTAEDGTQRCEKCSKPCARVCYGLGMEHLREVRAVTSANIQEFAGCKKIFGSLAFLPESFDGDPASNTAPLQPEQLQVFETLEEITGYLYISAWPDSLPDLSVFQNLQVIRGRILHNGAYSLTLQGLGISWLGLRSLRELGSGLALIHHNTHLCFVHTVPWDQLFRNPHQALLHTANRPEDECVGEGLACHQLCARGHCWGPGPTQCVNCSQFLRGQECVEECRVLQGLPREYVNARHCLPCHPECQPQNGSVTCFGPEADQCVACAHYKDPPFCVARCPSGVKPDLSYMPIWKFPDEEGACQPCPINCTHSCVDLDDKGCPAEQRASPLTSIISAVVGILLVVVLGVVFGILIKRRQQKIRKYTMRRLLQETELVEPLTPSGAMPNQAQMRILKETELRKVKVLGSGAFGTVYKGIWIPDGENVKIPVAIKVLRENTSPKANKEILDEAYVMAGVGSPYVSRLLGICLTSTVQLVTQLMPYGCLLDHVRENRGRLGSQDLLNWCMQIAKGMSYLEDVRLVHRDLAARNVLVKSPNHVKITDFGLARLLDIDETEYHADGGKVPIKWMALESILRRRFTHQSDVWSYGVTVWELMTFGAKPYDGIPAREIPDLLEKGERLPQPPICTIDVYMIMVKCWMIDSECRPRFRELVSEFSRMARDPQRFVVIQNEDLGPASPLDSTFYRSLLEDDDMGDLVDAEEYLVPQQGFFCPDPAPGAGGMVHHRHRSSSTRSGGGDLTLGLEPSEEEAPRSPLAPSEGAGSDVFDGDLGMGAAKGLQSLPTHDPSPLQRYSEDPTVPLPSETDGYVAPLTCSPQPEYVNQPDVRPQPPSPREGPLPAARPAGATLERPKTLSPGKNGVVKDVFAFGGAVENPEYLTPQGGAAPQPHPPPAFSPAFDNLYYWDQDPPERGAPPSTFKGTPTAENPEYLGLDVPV

Regarding `CC(C)=CCC/C(C)=C/CC/C(C)=C/CC/C(C)=C/CCC1(C)C=Cc2cc(O)ccc2O1` (configuration not stated), the result in [1], in experiment [2], in [3], in experiment [4], in [5] and in experiment [6] was inactive. For the same molecule, the result (in the experiment listed under Rattus norvegicus; in experiment [7]; in experiment [8]; in experiment [9]) was inactive.

Regarding `CC(C)=CCC/C(C)=C/CC/C(C)=C/CC/C(C)=C/CC/C(C)=C/CC/C(C)=C/CC/C(=C/Cc1cc(O)ccc1O)CO`, the inhibition in experiment [1] is 45%. This molecule also showed an IC50 in [3] of 9.79 µM.

For the molecule `CC(C)=CCC/C(C)=C/CC/C(C)=C/CC/C(C)=C/CC/C(C)=C/CC/C(C)=C/CCC1(C)C=Cc2cc(O)ccc2O1` (configuration not stated), the result in experiment [1], in [2], in experiment [3], in [4], in [5] and in experiment [6] was inactive. Moreover, the result (in the experiment filed under Rattus norvegicus; in experiment [7]; in [8]; in experiment [9]) was inactive.

The molecule `CC(C)=CCC/C(C)=C/CC/C(C)=C/CC/C(C)=C/CC/C(C)=C/CC/C(C)=C/CC/C(C)=C/Cc1cc(OS(=O)(=O)O)ccc1O` gave an IC50 in experiment [3] of 11.6 µM.

As to `CC(C)=CCC/C(C)=C/CC/C(C)=C/CC/C(C)=C/CC/C(C)=C/CC/C(C)=C/Cc1cc(OS(=O)(=O)O)ccc1O`, in [3], the IC50 was 6.44 µM.

`CC(C)=CCC/C(C)=C/CC/C(C)=C/CC/C(C)=C/CC/C(C)=C/CCC1(C)C=Cc2cc(O)ccc2O1` (configuration not stated): the result in experiment [1], in experiment [2], in [3], in experiment [4], in [5] and in [6] was inactive. The result (in the experiment filed under Rattus norvegicus; in experiment [7]; in experiment [8]; in experiment [9]) was inactive.

`CC(C)=CCC/C(C)=C/CC/C(C)=C/CC/C(C)=C/CC/C(C)=C/Cc1cc(OS(=O)(=O)O)ccc1O` showed an inhibition in experiment [2] of 65%. Further, the values for the IC50 in [3] and in experiment [10] were 14.5 µM and 91.9 µM, respectively.

Usually inhibition stands for the change of the read-out against control, counted positive when it falls. A lower inhibition goes with a response near the control. The IC50 is the concentration at which inhibition is half-maximal.
